The IC50 is the concentration needed to halve the response being measured. Read a high IC50 as a need for much substance.

The structures appear in SMILES notation. Structures can show the parent of a compound that is named as a salt. Non-standard residues stand in square brackets, D forms with d. Residues, ends and D or L forms follow the SMILES beside them. *: point of attachment. Cbz = O=C(OCc1ccccc1)*; Bn = c1ccc(C*)cc1

The assay deals with T1, rat brain farnesyl protein transferase (Rattus norvegicus, UniProt Q02293+Q04631).
T1 construct: 40-fold purified rat brain farnesyl protein transferase; from tissue; host or cells: rat brain
In words: PFT inhibitory activity assay (3H-farnesyl pyrophosphate, biotinyl peptide, streptavidin beads). In kind it is biochemical. Conditions: 30 mM potassium phosphate buffer pH 7.4; FPP 0.12 μM; (biotinyl)-Ahe-Tyr-Lys-Cys-Val-Ile-Met 0.1 μM; 37° C, 30 minutes. The protocol: The PFT inhibitory activity of compounds of Formula I was assayed in 30 mM potassium phosphate buffer, pH 7.4, containing 7 mM DTT, 1.2 MM MgCl2, 0.1 mM leupeptin, 0.1 mM pepstatin, and 0.2 mM phenylmethylsulfonyl fluoride. Assays were performed in 96 well plates (Wallec) and employed solutions composed of varying concentrations of a compound of Formula I in 100% DMSO. Upon addition of both substrates, radiolabeled farnesyl pyrophosphate ([1-^3 H], specific activity 15-30 Ci/mmol, final concentration 0.12 μM) and (biotinyl)-Ahe-Tyr-Lys-Cys-Val-Ile-Met peptide (final concentration 0.1 μM), the Seq ID NO:59 enzyme reaction was started by addition of 40-fold purified rat brain farnesyl protein transferase. After incubation at 37° C for 30 minutes, the reaction was terminated by diluting the reaction 2.5-fold with a stop buffer containing 1.5M magnesium acetate, 0.2M H3 PO4, 0.5% BSA, and strepavidin beads (Amersham) at a concentration of 1.3 mg/mL. After allowing the plate to settle for 30 minutes at room temperature, radioactivity was quantitated on a microBeta counter (model 1450, Wallec).

Molecule `C[C@@H](NC(=O)[C@H](COCc1ccccc1)NC(=O)[C@H](Cc1ccc(OCc2ccccc2)cc1)NC(=O)[C@H](Cc1c[nH]cn1)NC(=O)OCc1ccccc1)C(=O)O` [Cbz--His--Tyr(OBn)--Ser(OBn)--DAla--OH, N-[N-[N-[N-[(Phenylmethoxy)carbonyl]-L-histidyl]-O-(phenylmethyl)-L-tyrosyl]-O-(phenylmethyl)-L-seryl]-D-alanine, monohydrochloride] (Cbz-HY(Bn)S(Bn)[dA]-OH) registered an IC50 of 0.404 µM.
Consider `COC(=O)[C@@H](C)NC(=O)[C@H](COCc1ccccc1)NC(=O)[C@H](Cc1ccc(OCc2ccccc2)cc1)NC(=O)[C@H](Cc1c[nH]cn1)NC(=O)OCc1ccccc1` [Cbz--His--Tyr(OBn)--Ser(OBn)--DAla--OM2, N-[N-[N-[N-[(Phenylmethoxy)carbonyl]-L-histidyl]-O-(phenylmethyl)-L-tyrosyl]-O-(phenylmethyl)-L-seryl]-D-alanine, methyl ester] (Cbz-HY(Bn)S(Bn)[dA]-OMe), for which half-maximal inhibition (IC50) required 0.142 µM.

The values above are taken from patent US5763577A, “Substituted tetra- and pentapeptide inhibitors of protein: farnesyl transferase” (Warner-Lambert Company, priority 1996, dated 1998).
